Data taken from the supplement of paper PMC4862054.

Legend:
Conditions in all cases: incubation time: 72 h
CAL-148 [1] = assay: drug sensitivity score (DSS), CellTiter-Glo (DSS (AUC-based score)); higher = stronger drug effect (viability inhibition or cytotoxicity); extreme values may be limits of the assay
Method in brief: (§1)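 Compound was dispensed into 384-well plates at 5 concentrations in 10-fold steps spanning a 10,000-fold range chosen for each compound, and 20 µl of breast cancer cell suspension was added before 72 h of incubation. CellTox Green fluorescence was read at 485/520 nm, followed by CellTiter-Glo luminescence after 10 min at room temperature. Values on each plate were normalised to 0.1 % DMSO and a positive kill control. The drug sensitivity score came from the area under the fitted dose-response curve.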

MDA-MB-453 [2] = assay: as above
Method in brief: as §1

HCC1937 [3] = assay: as above
Method in brief: as §1

CAL-51 [4] = assay: as above
Method in brief: as §1

SK-BR-3 = assay: as above
Method in brief: as §1

HDQ-P1 = assay: as above
Method in brief: as §1

HCC1599 [5] = assay: as above
Method in brief: as §1

Hs578T [6] = assay: as above
Method in brief: as §1

CAL-85-1 [7] = assay: as above
Method in brief: as §1

CAL-120 [8] = assay: as above
Method in brief: as §1

MFM-223 [9] = assay: as above
Method in brief: as §1

CAL-148 [10] = assay: normalised response (% of control), CellTox Green; higher = less cell death (100 = DMSO, 0 = benzethonium chloride kill control)
Method in brief: (§2)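 Each entry is the normalised signal at a single concentration within a series. The series comprised 5 concentrations in 10-fold steps over a compound-specific 10,000-fold range, placed in 384-well plates into which breast cancer cell lines were seeded as 20 µl suspension and incubated 72 h. CellTox Green (485/520 nm) fluorescence and then CellTiter-Glo luminescence were read, with signals normalised per plate to 0.1 % DMSO (100) and a positive kill control (0).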

MDA-MB-453 [11] = assay: as above
Method in brief: as §2

HCC1937 [12] = assay: as above
Method in brief: as §2

CAL-51 [13] = assay: as above
Method in brief: as §2

MDA-MB-231 = assay: as above
Method in brief: as §2

DU-4475 = assay: as above
Method in brief: as §2

MDA-MB-436 = assay: as above
Method in brief: as §2

BT-549 = assay: as above
Method in brief: as §2

MCF-10A = assay: as above
Method in brief: as §2

HCC1599 [14] = assay: as above
Method in brief: as §2

Hs578T [15] = assay: as above
Method in brief: as §2

HCC1143 = assay: as above
Method in brief: as §2

BT-474 = assay: as above
Method in brief: as §2

CAL-85-1 [16] = assay: as above
Method in brief: as §2

MDA-MB-468 = assay: as above
Method in brief: as §2

CAL-120 [17] = assay: as above
Method in brief: as §2

MFM-223 [18] = assay: as above
Method in brief: as §2

| SMILES | drug sensitivity score (CAL-148 [1]) | drug sensitivity score (MDA-MB-453 [2]) | drug sensitivity score (HCC1937 [3]) | drug sensitivity score (CAL-51 [4]) | drug sensitivity score (SK-BR-3) | drug sensitivity score (HDQ-P1) | drug sensitivity score (HCC1599 [5]) | drug sensitivity score (Hs578T [6]) | drug sensitivity score (CAL-85-1 [7]) | drug sensitivity score (CAL-120 [8]) | drug sensitivity score (MFM-223 [9]) | normalised response (CAL-148 [10]) [%] | normalised response (MDA-MB-453 [11]) [%] | normalised response (HCC1937 [12]) [%] | normalised response (CAL-51 [13]) [%] | normalised response (MDA-MB-231) [%] | normalised response (DU-4475) [%] | normalised response (MDA-MB-436) [%] | normalised response (BT-549) [%] | normalised response (MCF-10A) [%] | normalised response (HCC1599 [14]) [%] | normalised response (Hs578T [15]) [%] | normalised response (HCC1143) [%] | normalised response (BT-474) [%] | normalised response (CAL-85-1 [16]) [%] | normalised response (MDA-MB-468) [%] | normalised response (CAL-120 [17]) [%] | normalised response (MFM-223 [18]) [%] |
| --- | --- | --- | --- | --- | --- | --- | --- | --- | --- | --- | --- | --- | --- | --- | --- | --- | --- | --- | --- | --- | --- | --- | --- | --- | --- | --- | --- | --- |
| Cc1cc(Nc2nc(N[C@@H](C)c3ncc(F)cn3)ncc2Cl)[nH]n1 [AZD1480] | 0 | 0 | 0 | 0 | 0 | 0 | 0 | 0 | 0 | 0 | 5.17 |  |  |  |  |  |  |  |  |  |  |  |  |  |  |  |  |  |
| CC1(C)CCC(c2ccc(Cl)cc2)=C(CN2CCN(c3ccc(C(=O)NS(=O)(=O)c4ccc(N[C@H](CCN5CCOCC5)CSc5ccccc5)c(S(=O)(=O)C(F)(F)F)c4)cc3)CC2)C1 [Navitoclax] | 2 | 3.71 | 3.57 | 2.18 | 0 | 4.94 | 0 | 0 | 0.831 | 7.04 | 2.94 |  |  |  |  |  |  |  |  |  |  |  |  |  |  |  |  |  |
| CC[C@H](CO)Nc1nc(NCc2ccccc2)c2ncn(C(C)C)c2n1 [Seliciclib] | 0 | 0 | 0 | 2.74 | 0 | 0 | 0 | 0 | 0 | 0 | 0 |  |  |  |  |  |  |  |  |  |  |  |  |  |  |  |  |  |
| O=[N+]([O-])c1ccc2c(c1)S(=O)(=O)C=C2 [Stattic] | 11.9 | 12.6 | 15.3 | 18.1 | 8.62 | 6.75 | 7.71 | 14 | 17.8 | 7.49 | 14.8 |  |  |  |  |  |  |  |  |  |  |  |  |  |  |  |  |  |
| CN(Cc1cnc2nc(N)nc(N)c2n1)c1ccc(C(=O)N[C@@H](CCC(=O)O)C(=O)O)cc1 [Methotrexate] | 0 | 0 | 30.2 | 16.2 | 0 | 23.1 | 1.47 | 2.72 | 9.24 | 17.3 | 0 |  |  |  |  |  |  |  |  |  |  |  |  |  |  |  |  |  |
| C=CCN(/C=C1/C(=O)O[C@H](COC)[C@@]2(C)C1=C(O)C(=O)C1=C2[C@H](OC(C)=O)C[C@]2(C)C(=O)CC[C@@H]12)CC=C [Sonolisib] | 0 | 0 | 0 | 4.2 | 0 | 0 | 0 | 0 | 0 | 0 | 0 |  |  |  |  |  |  |  |  |  |  |  |  |  |  |  |  |  |
| CCN(CC)CCCC(C)Nc1ccnc2cc(Cl)ccc12 (stereo not drawn) [Chloroquine] | 10.1 | 15.7 | 9.1 | 13.3 | 14.7 | 7.81 | 9.72 | 5.84 | 11 | 11.1 | 9.76 |  |  |  |  |  |  |  |  |  |  |  |  |  |  |  |  |  |
| CC(C)(C)NC(=O)[C@H]1CC[C@H]2[C@@H]3CC[C@H]4NC(=O)C=C[C@]4(C)[C@H]3CC[C@]12C [Finasteride] | 0 | 0 | 0 | 0 | 0 | 0 | 0 | 0 | 0 | 0 | 0 |  |  |  |  |  |  |  |  |  |  |  |  |  |  |  |  |  |
| O=C(CCCCCCC(=O)Nc1ccccc1)NO [Vorinostat] | 5.5 | 10.6 | 3.4 | 8.31 | 5.14 | 2.32 | 4.43 | 2.53 | 4.06 | 3.27 | 3.32 |  |  |  |  |  |  |  |  |  |  |  |  |  |  |  |  |  |
| CCNC(=O)CCC/C=C\C[C@@H]1[C@@H](/C=C/[C@@H](O)CCc2ccccc2)[C@H](O)C[C@@H]1O [Bimatoprost] | 0 | 0 | 0 | 0 | 0 | 0 | 0 | 0 | 0 | 0 | 0 |  |  |  |  |  |  |  |  |  |  |  |  |  |  |  |  |  |
| Cc1cn(-c2cc(NC(=O)c3ccc(C)c(Nc4nccc(-c5cccnc5)n4)c3)cc(C(F)(F)F)c2)cn1 [Nilotinib] | 0 | 0 | 0 | 6.22 | 0 | 0 | 0 | 0 | 0 | 0 | 0 |  |  |  |  |  |  |  |  |  |  |  |  |  |  |  |  |  |
| CN(C)C(=N)NC(=N)N [Metformin] | 0 | 0 | 0 | 6.92 | 0 | 0 | 0 | 0 | 0 | 0 | 0 |  |  |  |  |  |  |  |  |  |  |  |  |  |  |  |  |  |
| CNC(=O)c1ccccc1Sc1ccc2c(/C=C/c3ccccn3)n[nH]c2c1 [Axitinib] | 0 | 0 | 0 | 9.31 | 0 | 1.23 | 2.21 | 0 | 0 | 1.6 | 8.4 |  |  |  |  |  |  |  |  |  |  |  |  |  |  |  |  |  |
| C=CCn1c(=O)c2cnc(Nc3ccc(N4CCN(C)CC4)cc3)nc2n1-c1cccc(C(C)(C)O)n1 [MK1775] | 19.3 | 14.6 | 12.4 | 15.5 | 18.8 | 14.9 | 19.9 | 14.5 | 16.2 | 12.1 | 12.4 |  |  |  |  |  |  |  |  |  |  |  |  |  |  |  |  |  |
| CC(=O)[C@]1(O)Cc2c(O)c3c(c(O)c2[C@@H](O[C@H]2C[C@H](N)[C@H](O)[C@H](C)O2)C1)C(=O)c1ccccc1C3=O [Idarubicin] | 10.5 | 1.75 | 2.31 | 14.5 | 7.9 | 1.38 | 3.71 | 6.15 | 6.75 | 1.91 | 3.67 |  |  |  |  |  |  |  |  |  |  |  |  |  |  |  |  |  |
| COc1cc(Nc2c(C#N)cnc3cc(OCCCN4CCN(C)CC4)c(OC)cc23)c(Cl)cc1Cl [Bosutinib] | 1.7 | 5.47 | 7.57 | 7.53 | 5.72 | 11.3 | 5.58 | 0.947 | 9.16 | 5.53 | 4.34 |  |  |  |  |  |  |  |  |  |  |  |  |  |  |  |  |  |
| Cc1cc(Nc2nc(N[C@@H](C)c3ncc(F)cn3)ncc2Cl)[nH]n1 [AZD1480] (1000 nM) |  |  |  |  |  |  |  |  |  |  |  | 85.8 | 105 | 69.3 | 69.4 | 76.7 | 98.2 | 105 | 88.9 | 98.9 | 99.3 | 71.7 | 97.3 | 95.3 | 109 | 84.2 | 87.1 | 41.5 |
| CC(=O)[C@]1(O)Cc2c(O)c3c(c(O)c2[C@@H](O[C@H]2C[C@H](N)[C@H](O)[C@H](C)O2)C1)C(=O)c1ccccc1C3=O [Idarubicin] (1000 nM) |  |  |  |  |  |  |  |  |  |  |  | 28.9 | 106 | 113 | -13.1 | 77.7 | 81.7 | 83.7 | 84.2 | 34.9 | 109 | 84 | 110 | 65.2 | -10.6 | 18.9 | 55.6 | 37.8 |
| CCNC(=O)c1noc(-c2cc(C(C)C)c(O)cc2O)c1-c1ccc(CN2CCOCC2)cc1 [NVP-AUY922] (1000 nM) |  |  |  |  |  |  |  |  |  |  |  | 42.9 | 89 | 48.9 | 48.1 | 52.9 | 72.5 | 107 | 117 | 39.3 | 97.9 | -31.9 | 74.2 | 55.9 | 37.6 | 112 | 88.4 | 98.3 |
| CNC(=O)c1ccccc1Sc1ccc2c(/C=C/c3ccccn3)n[nH]c2c1 [Axitinib] (1000 nM) |  |  |  |  |  |  |  |  |  |  |  | 108 | 108 | 122 | 76 | 121 | 104 | 84.9 | 146 | 97.6 | 118 | 115 | 51.8 | 103 | 104 | 129 | 96.4 | 66.7 |
| CCNC(=O)c1noc(-c2cc(C(C)C)c(O)cc2O)c1-c1ccc(CN2CCOCC2)cc1 [NVP-AUY922] (100 nM) |  |  |  |  |  |  |  |  |  |  |  | 21.6 | 96.2 | 125 | 64.1 | 46.7 | 65.5 | 67.1 | 140 | 57.5 | 86.9 | 102 | 87.9 | 80 | 63.1 | 31.9 | 90.3 | 78.3 |
| O=C(CCCCCCC(=O)Nc1ccccc1)NO [Vorinostat] (1000 nM) |  |  |  |  |  |  |  |  |  |  |  | 100 | 93.9 | 122 | 96.6 | 83.2 | 94.5 | 73.5 | 115 | 89.9 | 91.8 | 78.8 | 100 | 96.8 | 95.5 | 103 | 95.1 | 97.3 |
